The results in this text go back to US20260276656A1, “GUT MICROBIOTA-RELATED METHODS FOR TREATING DEMENTIA AND AGE-DEPENDENT COGNITIVE DECLINE” (Albert-Ludwigs-Universitat Freiburg, priority 2019, published 2026).

Series [1] has as its system medial prefrontal cortex neurons. The series can be described thus: In vivo single unit recordings from medial prefrontal cortex during natural sleep, spike rate and population coupling. Set-up: species or system mouse. To be noted: 5 mg/kg body weight i.p.; versus PBS; normalized to baseline; FIG. 9B. As for the experimental part: C57BL/6J mice aged 10-11 weeks were anesthetized with isofluorane (induction: 3%, maintenance approximately 1.5%). Buprenorphin (0.05-0.1 mg/kg body weight) and Carprofen (4-5 mg/kg body weight) were injected for analgesia. During implantation, the body temperature was maintained with a heating pad. The skin was incised from the cerebellum to the nose and the bone cleaned with 3% H2O2. Ground and reference screws (1 mm diameter) were inserted anterior to the lambdoid suture. A third stabilizing screw was inserted on the left parietal bone. […]
After habituation to the recording room for several days, single-unit recordings were performed at a sampling frequency of 30 kHz using a 32-channel amplifier (Intan Technologies). […] First, a baseline was recorded during sleep identified as epochs when mice were completely immobile in their home cage and slow wave activity could be seen in the PFC local field potential. […]
Recording sections containing artefacts were manually identified and removed. […] Firing rates were estimated from the total number of spikes during the analyzed behavioral episodes divided by the duration. To quantify population synchrony, we utilized a metric that compares the rate change of a given unit to the normalized population rate at each time point. […]

The nature of series [2]: Untargeted metabolomics of blood serum and brain tissue. The settings on record: inferred from similarly elevated levels in serum and brain tissue of old mice. The class given is in vivo, mouse. As to the method:
Blood serum and hippocampal brain tissue was removed from young and old mice and snap-frozen in liquid nitrogen after determining the weight. Sample analysis was conducted by Metabolon, Inc. using a proprietary series of organic and aqueous extractions to remove the protein content while allowing maximum recovery of small molecules. The extract was divided into two parts: one for analysis by LC and the other for analysis by GC. TurboVap® (Zymark) was used to remove the organic solvent content. Each sample was then frozen and dried under vacuum. The exact methodology can be provided by Metabolon, Inc. as their standard protocol for untargeted mass spectrometry metabolomics.
Samples were snap-frozen upon collection and stored at −80° C. until further processing at Metabolon, Inc. 52. Briefly, recovery standards were added prior to the first step in the extraction process for quality control purposes. […] Three types of controls were analyzed in concert with the experimental samples: samples generated from a pool of spike-in controls extensively characterized by Metabolon, Inc. or generated from a small portion of each experimental sample of interest served as technical replicate throughout the data set; extracted water samples served as process blanks; and a cocktail of standards spiked into every analyzed sample allowed instrument performance monitoring. […]

Entries after “also recorded” stand apart in the source; their conditions may differ.

On to `C[N+](C)(C)CCCCC(=O)[O-]` [NNN-trimethyl-5-aminovalerate, 5-(trimethylammonio) pentanoate], for which, in series [1], the “average spike frequency (spike firing rate)” value is recorded as “No effect; also recorded: no change” and the population coupling result is listed as “significant increase”. For the same compound, the blood-brain barrier crossing entry in series [2] is “cross the blood-brain barrier”.
